Patent US9383644B2, “Sulfonic acid derivative compounds as photoacid generators in resist applications” (Heraeus Precious Metals North America Daychem LLC, priority 2014, dated 2016)

How the values were obtained:
Assay type in all cases: physicochemical
[1] = Solubility of PAG in organic solvents (solvent added until completely dissolved); details: for Solubility (w/v %) Cyclohexanone / Solubility (w/v %) PGMEA / Solubility (w/v %) GBL: 20° C.; for Solubility in organic solvents (in words): PGMEA, cyclohexanone, GBL; for Solubility (w/v %) PGMEA / Solubility (w/v %) in PGMEA: Propylene glycol monomethyl ether acetate; for Solubility (w/v %) PGMEA: Table 8; for Solubility (w/v %) GBL: γ-Butyrolactone; for Solubility (w/v %) in PGMEA: Table 7
Source text: Solubility is an important factor in the evaluation of a PAG. High solubility not only makes a PAG purified readily but also enables a PAG to be used for a wide range of concentrations in photoresists and in varied solvent systems. To test the solubility of a PAG, a solvent is slowly added until the PAG is completely dissolved and no turbidity is observed in the clear solution. Table 8 lists the solubility (w/v %) of some representative N-hydroxynaphthalimide sulfonate derivatives versus NIT in various organic solvents at 20° C. […] All compounds except for S-6 and O-12 show much higher solubility than the commercial benchmark (NIT).

[2] = Photoreactivity: photolysis of PAGs in acetonitrile at 365 nm, photoreaction constant from UV-Vis absorbance; details: for Relative Photoreactivity (normalized photoreaction constant) at 365 nm: acetonitrile, air, room temperature, 3×10^−5 M, NIT normalized to one; for Solubility x relative Photoreactivity: product of solubility in PGMEA and relative photoreactivity at 365 nm
Source text: A photoresist composition typically comprises PAG, polymers, additives and solvents. The performance of a photoresist composition is mainly dependent on the properties of the PAG and polymer components. To formulate a high-performance photoresist composition, more photosensitive PAGs are typically selected. The photosensitivity of a PAG is typically directly related to the strength of the generated acid and the photoreactivity of the PAG. For a series of PAGs producing the same latent acid, their photosensitivity is related only to their photoreactivity. Thus evaluating the photosensitivity of a PAG can be achieved by studying its photoreactivity. The higher photoreactivity, the higher photosensitivity. The photoreactivity can be investigated by photolysis of a PAG in its dilute solution under low exposure intensity (to avoid side reactions which don't generate the desired acid). The change in the concentration of a PAG upon irradiation can be determined by measuring the absorbance of the PAG at the maximum absorption wavelength.
Photolysis of PAGs was carried out in acetonitrile in air at room temperature. The sodium salt of tetrabromophenol blue (TBPBNa), an acid indicator dye, which has a maximum absorption at 618 nm, was purchased from Aldrich (indicator grade) and used as received. Irradiation of the solution of the PAGs (3×10^−5 M) was performed using a Cole-Parmer UV 15 W bench lamp (EW-97605-50) at 365 nm. Light intensity was measured using an UV Power Puck II radiometer from EIT Inc. UV-Vis spectra were run on a Thermo Scientific Evolution 201 UV-visible spectrophotometer.
Photolysis of NIT, comparative compound A and B, S-3, and S-11 was examined in acetonitrile. The absorption band at 400 nm gradually decreases upon irradiation, indicating the progress of photoreaction with the increase of exposure dose of energy. Assuming the photoreaction is first-order, plot of natural log of changes in absorbance with exposure dose of energy gives the photoreaction constant of S-3 (i.e., the slope of the linear trendline) (FIG. 3). The photoreaction constants of other compounds were similarly determined under the same irradiation condition. Comparing the constants of A, B, S-3, and S-11 with that of NIT normalized to one gives the relative photoreactivity (Table 7). […] The formation of acid upon irradiation was confirmed by observing the spectral changes of the acid indicator, TBPBNa at 618 nm.

[3] = UV absorbance of PAG compounds (FIG. 1); details: for Absorbance at i-, h-, and g-lines of a mercury lamp (in words): versus NIT
Source text: FIG. 1 is a graph illustrating the UV absorbance of certain PAG compounds of the invention versus the UV absorbance of certain prior art PAG compounds;
Referring to FIG. 1, the PAG compounds of the invention have excellent solubility in organic solvents and strong absorption at i-, h-, and g-lines of a mercury lamp.

Row | Structure (SMILES) | Solubility (w/v %) Cyclohexanone [1] | Solubility in organic solvents (in words) [1] | Solubility (w/v %) PGMEA [1] | Solubility (w/v %) GBL [1] | Relative Photoreactivity (normalized photoreaction constant) at 365 nm [2] | Solubility x relative Photoreactivity [2] | Solubility (w/v %) in PGMEA [1] | Strong absorption band [3] | Absorbance at i-, h-, and g-lines of a mercury lamp (in words) [3]
1 | COC(C)CCOC(=O)CCSc1ccc2c3c(cccc13)C(=O)N(OS(=O)(=O)c1ccc(C)cc1)C2=O (stereo not shown) [Compound S-43] | 37.5% w/v % | extremely high solubility | 11.7% w/v % | 67.8% w/v % |  |  |  |  | 
2 | CCCCSc1ccc2c3c(cccc13)C(=O)N(OS(=O)(=O)C(F)(F)F)C2=O [Comparative A, reference compound] | 4.1% w/v % |  | 1.1% w/v % | 0.9% w/v % | 13.5 | 14.9% | 1.1% w/v % |  | 
3 | CC(C)(C)c1ccc(Sc2ccc3c4c(cccc24)C(=O)N(OS(=O)(=O)C(F)(F)F)C3=O)cc1 [Compound S-6] | 5.3% w/v % |  | 1.9% w/v % | 1.2% w/v % |  |  |  | 400 nm | much larger than that of NIT
4 | COC(C)CCOC(=O)CCSc1ccc2c3c(cccc13)C(=O)N(OS(=O)(=O)C(F)(F)F)C2=O (stereo not shown) [Compound S-11] | 86.4% w/v % | extremely high solubility | 53.9% w/v % | 105.7% w/v % | 14.2 | 765.4% | 53.9% w/v % |  | 
5 | CC(C)Sc1ccc2c3c(cccc13)C(=O)N(OS(=O)(=O)C(F)(F)F)C2=O [Compound S-3] | 16.6% w/v % | much higher solubility than comparative compound A | 7.2% w/v % | 8.1% w/v % | 13.3 | 95.8% | 7.2% w/v % | 400 nm | much larger than that of NIT
6 | O=C1c2cccc3cccc(c23)C(=O)N1OS(=O)(=O)C(F)(F)F [NIT, N-Hydroxynaphthalimide triflate, reference compound] | 5.9% w/v % |  | 1.7% w/v % | 2.2% w/v % | 1.0 | 1.7% | 1.7% w/v % |  | 
7 | O=C1c2cccc3c(C#Cc4ccccc4)ccc(c23)C(=O)N1OS(=O)(=O)C(F)(F)F [Comparative B, reference compound] | 3.5% w/v % | much lower | 1.0% w/v % | 1.1% w/v % | 2.5 | 2.5% | 1.0% w/v % |  | 
8 | O=C1c2cccc3c(Oc4ccccc4)ccc(c23)C(=O)N1OS(=O)(=O)C(F)(F)F [Compound O-12] | 9.0% w/v % |  | 2.0% w/v % | 1.6% w/v % |  |  |  | 364 nm | much larger than that of NIT
